Assays:
[1] = Circulating glucose by finger stick during insulin pulse treatments; format: in vivo, human; settings: during the first treatment, with ingested carbohydrates; all examples
Text: In prototype testing, a commercially available LIFESCAN ONETOUCH ULTRA glucose meter was used to measure the subject's baseline and subsequent circulating blood glucose level. The glucose meter was calibrated according to the manufacturer's recommendations. A blood sampler test strip was then inserted into the blood glucose meter as directed by the manufacturer. The glucose meter automatically turned on upon proper insertion of the test strip into the meter. This commercially available glucose meter utilized a lancet to prick the subject's fingertip or arm. After pricking the skin, the user gently massages the area to help form a round drop of blood (about one micro-liter in volume) on the skin surface. The subject then caused the blood sample to be absorbed onto the blood sampler test strip per the manufacturer's recommended procedure. If adequate blood was absorbed by the blood sampler test strip, the blood glucose level was automatically calculated and shown on the instrument's display panel in approximately 5 seconds. […]
For all of the above listed examples, after the initial few days of treatment, the patients underwent treatment once a week, each treatment day consisting of three infusions of insulin accompanied by ingestion of carbohydrates. […] The patients' circulating glucose were measured once every thirty minutes by the finger stick method currently used by most diabetic patients. […]

[2] = stated without source; cited from earlier work

What does the source list for insulin?
rise in circulating glucose levels [1]: 100 to 150 mg/dL; half-life [2]: 5 min

From patent US20060122099A1, “Method for infusing insulin to a subject to improve impaired total body tissue glucose processing” (priority 2004, published 2006)
